Results on one substance are retold here after patent US9995734B2, “Human T cell line assay for evaluating the immunologic identity of glatiramer acetate preparations” (Mylan Inc., priority 2013, dated 2018).

Where “and” joins values, the source holds several entries; their conditions need not be identical. Equal values may be shown once.

The test system of one test is Donor 1 COP T-Cell Lines. Kind of test: ATP proliferation assay (CellTiter Glo), Donor 1 COP T-cell lines, incl. reactivity to non-canonical GA peptides. The class given is cell-based, human. To be noted: for luminescent ATP proliferation assay, mean: no antigen 5673 (Table 9). On the procedure: Proliferation was evaluated by measuring ATP content using a luminescent method (CellTiter Glo Luminescent Cell Viability Assay, Promega, Madison, Wis., cat. #G7571) or by measuring BrdU uptake by ELISA (Millipore cat. #2752), in both cases following kit instructions. A split well format was used. Cells in each well were resuspended and 65 μl transferred to the wells of each of two new U-bottom 96-well plates, to generate the replicate plates. For the initial screening, the original 96-well plate received mitomycin-treated autologous PBMC as APC plus 10 μg/mL antigen (GA). A first replicate plate received 100 μl., mitomycin-treated PBMC alone (2×10^5), and no antigen, and a second replicate plate received 100 μL mitomycin-treated PBMC plus GA at a final concentration of 10 μg/mL. Therefore, all three plates received autologous APC (PBMC) treated with mitomycin C to prevent cell division. […] The latter two plates were incubated for 3 days at 37° C., 6% CO2 before adding CellTiter Glo or BrdU and measuring signal. IL-2 was added at 10 U/mL to the original 96-well plate for expansion on Day 17. For subsequent screenings, mitomycin-treated EBV-transformed autologous B-LCL (2×10^5 to 5×10^5 cells/mL) were used as APC.
COP-responsive T-cell lines were obtained from Donor 1. In the initial stimulation, isolated PBMC were plated at 1×10^5 cells per well (5×10^5 cells/mL) with 10 μg/mL Copaxone and cultured as described above. IL-2 was added to all wells on Days 4 and 7 of culture, and the wells screened for reactivity on Day 14 using a luminescent proliferation assay in split well format. The original plate was restimulated, and IL-2 added 4 days after restimulation.
T-cell line 222-2D8, generated from Donor 1 by initial stimulation with COP, was shown in at least two experiments to proliferate comparably following restimulation with GMA and COP. […] ATP levels were measured at 48 hours after stimulation. The control in the GMA series was no antigen, and the control in the COP series was MBP. The response to GMA in comparison to COP at the 10 μg/mL dose in this assay was 103.4%.
In a second ATP proliferation assay, carried out on Day 56 or culturing following stimulation with 1, 3, or 10 μg/mL of GMA or COP, the response to GMA in comparison to COP at the 10 μg/mL dose was 107.1%.
T-cell line 222-2F1, generated from Donor 222 by initial stimulation with COP, was shown in at least two experiments to proliferate comparably following restimulation with GMA and COP. […] ATP levels were measured at 48 hours after stimulation. The control in the GMA series was no antigen, and the control in the COP series was MBP. The response to GMA in comparison to COP at the 10 μg/mL dose in this assay was 85.1%.
On Day 56 of culturing, after six total rounds of stimulation, cell line 222-2F12 was assayed for proliferation in response to stimulation with GA and a series of non-canonical peptides. For the assay, 0, 3, 10, or 30 μg/mL of each of peptides GL 14, GLT 631, GAT 111, and GAT 631, COP, and GMA, were added to the T-cell lines at 1×10^5 cells/mL, in the presence of mitomycin C-treated autologous B-LCL. Proliferation was measured by luminescent ATP assay. Cell line 222-2F12 responded to GL 14 at 3 μg/mL, and not to the other non-canonical GA peptides tested. The response to GMA in comparison to COP at the 10 μg/mL dose in this assay was 99.4%.
The cultures were restimulated on days 46, 56, 67 and 75. On Day 56, cell lines 222-2D8, 222-1H12, 222-2F12, 222-2B8, 222-105, 222-2B11, and 222-2E1 again were tested for reactivity to stimulation with 1, 3, or 10 μg/mL of GMA or COP in a proliferation assay. ATP levels were measured in all seven cell lines at 48 hours (results in FIGS. 5A-G) after stimulation. The control in the GMA series was no antigen, and the control in the COP series was MBP. […]
(Cellular ATP, detected with luciferase, serves as a proxy for viable cell number.)

Another test concerns Donor 4 COP T-Cell Lines. Kind of test: ATP proliferation assay (CellTiter Glo), Donor 4 COP T-cell lines, incl. reactivity to non-canonical GA peptides. The format is cell-based, human. To be noted: for Non-Canonical Peptide Non-Reactivity: proliferation <2 times no antigen control; for Proliferation (luminescent ATP assay), Mean: T-cell line 205-1F4, Day 71, autologous B-LCL.

For poly (Glu-Lys; 1:4) [GL 14], in the test with Donor 1 COP T-Cell Lines (222-2F12, Day 56, 0, 3, 10, 30 μg/mL, GL 14 response at 3 μg/mL), the “proliferation response to non-canonical GA peptides” value is on record as “responded”. Moreover, the “luminescent ATP proliferation assay, mean” value is 17007 with Donor 1 COP T-Cell Lines (222-2F12, Day 56, 3 μg/mL); 331 in the test on Donor 1 COP T-Cell Lines (222-2F12, Day 56, 10 μg/mL); 203 in the test on Donor 1 COP T-Cell Lines (222-2F12, Day 56, 30 μg/mL). Moreover, the “Non-Canonical Peptide Reactivity” value with Donor 1 COP T-Cell Lines (222-2F12, at least one proliferation value >=2 times no antigen control) is “GL 14”; with Donor 4 COP T-Cell Lines (205-1H3, at least one proliferation value >=2 times no antigen control), “GL 14”. Also, the “Reactive T-Cell Line” value is 222-2F12 (Donor 1) with Donor 1 COP T-Cell Lines (Donor 1 COP lines, at least a 50% increase in proliferation relative to a control after stimulation with the non-canonical GA peptide) and 205-1H3 (Donor 4) with Donor 4 COP T-Cell Lines (Donor 4 COP lines, at least a 50% increase in proliferation relative to a control after stimulation with the non-canonical GA peptide). For the same substance, the “Nonreactive T-Cell Line” value with Donor 1 COP T-Cell Lines (Donor 1 COP lines, stimulation with the non-canonical GA peptide) is 222-1H12 (Donor 1); in the test on Donor 4 COP T-Cell Lines (Donor 4 COP lines, stimulation with the non-canonical GA peptide), 205-1F4 (Donor 4) and 205-1H11 (Donor 4). Further, the “Non-Canonical Peptide Non-Reactivity” value with Donor 4 COP T-Cell Lines (205-1F4) and with Donor 4 COP T-Cell Lines (205-1H11) was “GL 14” each time. Besides, in the test with Donor 4 COP T-Cell Lines (205-1H3, at 1 μg/mL of antigen), the “reactivity to non-canonical GA peptide” value is on record as “showed reactivity”. For the same substance, the “Proliferation (luminescent ATP assay), Mean” value in the test with Donor 4 COP T-Cell Lines (1 μg/mL antigen) came to 12630; in the test with Donor 4 COP T-Cell Lines (3 μg/mL antigen) it was 1423; with Donor 4 COP T-Cell Lines (10 μg/mL antigen), 158. In addition, the “Reactivity (proliferation), Mean” value is reported as 15619.0 in the test on Donor 4 COP T-Cell Lines (T-cell line 205-1H3, 1 μg/mL antigen, 0 μg/mL 4121.0); 1053.3 in the test on Donor 4 COP T-Cell Lines (T-cell line 205-1H3, 3 μg/mL antigen, 0 μg/mL 4121.0); 61.0 in the test with Donor 4 COP T-Cell Lines (T-cell line 205-1H3, 10 μg/mL antigen, 0 μg/mL 4121.0); 5954 RLU with Donor 4 COP T-Cell Lines (T-cell line 205-1H11, 1 μg/mL antigen, 0 μg/mL 6941); 102 RLU in the test on Donor 4 COP T-Cell Lines (T-cell line 205-1H11, 10 μg/mL antigen, 0 μg/mL 6941); 74 RLU with Donor 4 COP T-Cell Lines (T-cell line 205-1H11, 30 μg/mL antigen, 0 μg/mL 6941).
